In patent US20040131497A1, “PROCESS FOR STERILIZATION OF BIOLOGICAL COMPOSITIONS CONTAING PROTEIN” (priority 2002, published 2004):
Like-named read-outs stand apart in the source and are kept apart here.

Legend:
[1] = cited from earlier work
PRV=pseudorabies virus = settings: fibrinogen 5 g/L, UVC 254 nm, eight passes
Factor VIII = type: biochemical

Compound	solubility in aqueous solutions [1]	Log reduction PRV (PRV=pseudorabies virus; stabiliser 0.5 mM)	Log reduction PRV (PRV=pseudorabies virus; stabiliser 1 mmol/l)	Log reduction PRV (PRV=pseudorabies virus; stabiliser 2 mmol/l)	decrease in FVIII activity (Factor VIII)	PRV titer reduction (PRV)
C[C@@H]1O[C@@H](OC[C@H]2O[C@@H](Oc3c(-c4ccc(O)c(O)c4)oc4cc(O)cc(O)c4c3=O)[C@H](O)[C@@H](O)[C@@H]2O)[C@H](O)[C@H](O)[C@H]1O [rutin, reference compound]	poorly soluble in aqueous solutions	3 Log	3 Log	2.5 Log	–	–
COc1cc(C=O)ccc1O [vanillin]	–	5 Log	5.5 Log	5.5 Log	10%	5 Log
